Assay: DPPH radical scavenging antioxidant test
Assay type: biochemical
Conditions: for Inhibition (radical scavenging inhibition): 0.2 mL DPPH (0.75 mM), compound 3 μM in ethanol, 30 minutes in the dark, 517 nm
Description: The antioxidant properties of the 8-((4-hydroxynaphthalen-1-yl)diazenyl)naphthalene-1,3-disulfonic acid compound were studied by adding 0.2 mL DPPH (0.75 mM)) to 8-((4-hydroxynaphthalen-1-yl)diazenyl)naphthalene-1,3-disulfonic acid (III) (3 μM) in ethanol. After 30 minutes of incubation in the dark, the absorbance was read against a blank at 517 nm. Ascorbic acid (vitamin C) was used as standard antioxidants (positive control). A blank sample was prepared by 0.2 ml of DPPH in 3 mL ethanol. A negative control sample was run using ethanol instead of the sample. The radical scavenging inhibition was calculated using the following equation: […]

Structure (SMILES) | Inhibition (radical scavenging inhibition) [%] | antioxidant potential (vanishing DPPH radical colors at 517 nm) (DPPH in vitro test, vitamin C as positive control)
O=C1O[C@H]([C@@H](O)CO)C(O)=C1O [vit c, Ascorbic acid, reference compound] | 74 | 
O=S(=O)(O)c1cc(S(=O)(=O)O)c2c(/N=N/c3ccc(O)c4ccccc34)cccc2c1 [Product III, 8-((4-hydroxynaphthalen-1-yl)diazenyl)naphthalene-1,3-disulfonic acid] | 52 | high potential as an antioxidant compared to vitamin C
